According to patent US20100311714A1, “1H-IMIDAZO[4,5-c]QUINOLINONE COMPOUNDS” (priority 2009, published 2010):
Read-outs that look alike come from different tables or passages of the source.

Tests used:
PI3K alfa = target: T1, PI3K alfa (Homo sapiens, UniProt P42336); experiment: PI3K alpha kinase assay (Kinase-Glo luminescence); type: biochemical
T1 construct: His tag (C); made in house; host or cells: baculovirus BV1075; Tn5 (Trichoplusia ni) or TiniPro insect cells
Outline: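 IC50 values come from a four-parameter logistic fit of percent inhibition at eight concentrations, typically 10 to 0.003 μM. Recombinant PI3Kα at 10 nM turned over 1 μM ATP with 10 μg/mL PI for 60 min at room temperature, and residual ATP was measured by Kinase-Glo.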

[1] = tested on: S6 Ribosomal Protein phosphorylation Ser235/236 in TSC1 null mouse embryo fibroblast (MEF) cells; experiment: Reverse protein array, S6 Ribosomal Protein phosphorylation in TSC1 null MEF cells; type: cell-based; conditions: 1 h, TSC1-/- MEFs, 60 minutes
Outline: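 Phospho-S6 (Ser235/236) was quantified by reverse protein array of cell lysates with a phospho-specific primary antibody. […]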

T1 sequence (P42336 with tags, fused parts or gaps limits assumed): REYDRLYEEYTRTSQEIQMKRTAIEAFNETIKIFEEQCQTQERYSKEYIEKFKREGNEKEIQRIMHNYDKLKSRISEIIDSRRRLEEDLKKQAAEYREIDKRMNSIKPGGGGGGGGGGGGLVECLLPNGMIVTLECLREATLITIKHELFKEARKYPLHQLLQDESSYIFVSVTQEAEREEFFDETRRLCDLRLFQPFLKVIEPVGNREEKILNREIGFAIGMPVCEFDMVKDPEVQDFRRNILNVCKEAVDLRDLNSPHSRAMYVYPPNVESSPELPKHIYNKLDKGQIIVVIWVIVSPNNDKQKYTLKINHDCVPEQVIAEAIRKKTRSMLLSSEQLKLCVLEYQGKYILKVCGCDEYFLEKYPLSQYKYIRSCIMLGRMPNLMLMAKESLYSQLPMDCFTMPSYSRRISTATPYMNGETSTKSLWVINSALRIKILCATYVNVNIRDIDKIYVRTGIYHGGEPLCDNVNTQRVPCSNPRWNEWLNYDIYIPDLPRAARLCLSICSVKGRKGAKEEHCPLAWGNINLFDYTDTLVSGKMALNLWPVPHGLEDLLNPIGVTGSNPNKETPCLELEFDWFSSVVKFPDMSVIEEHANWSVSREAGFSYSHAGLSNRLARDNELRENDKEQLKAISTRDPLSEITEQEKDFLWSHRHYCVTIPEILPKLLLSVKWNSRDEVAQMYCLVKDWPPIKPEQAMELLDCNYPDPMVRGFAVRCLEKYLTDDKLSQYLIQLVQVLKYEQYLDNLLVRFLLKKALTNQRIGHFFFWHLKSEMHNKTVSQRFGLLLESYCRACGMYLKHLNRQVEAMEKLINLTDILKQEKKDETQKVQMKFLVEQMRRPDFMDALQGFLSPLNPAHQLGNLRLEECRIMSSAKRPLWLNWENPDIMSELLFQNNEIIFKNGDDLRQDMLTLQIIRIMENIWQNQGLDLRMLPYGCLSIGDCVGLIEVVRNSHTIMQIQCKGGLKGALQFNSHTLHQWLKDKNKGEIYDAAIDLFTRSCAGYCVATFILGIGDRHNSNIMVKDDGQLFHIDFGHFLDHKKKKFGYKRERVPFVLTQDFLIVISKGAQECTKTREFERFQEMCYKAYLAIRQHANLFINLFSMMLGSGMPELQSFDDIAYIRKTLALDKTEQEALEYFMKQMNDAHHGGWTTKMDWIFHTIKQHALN

IC50 (PI3K alfa; read-out: EPK_PI3Kalfa/IC50)	IC50 (PI3K alfa; read-out: PI3Kalfa/IC50)	Structure (SMILES)	IC50 ([1]; read-out: p-S6 IC50)	IC50 ([1]; read-out: p-S6)
247 nM		COc1ccc(-n2c(=O)n(C)c3cnc4ccc(-c5cnc(C(OC)OC)c(OC)c5)cc4c32)c(OC)n1 [Example 8.13, 8-(6-Dimethoxymethyl-5-methoxy-pyridin-3-yl)-1-(2,6-dimethoxy-pyridin-3-yl)-3-methyl-1,3-dihydro-imidazo[4,5-c]quinolin-2-one]	15 nM	
5 nM		Cc1nc(N2CCC(O)C2)ccc1-n1c(=O)n(C)c2cnc3ccc(-c4cnc(N)c(C(F)(F)F)c4)cc3c21 (centres unmarked) [Example 27.3, 8-(6-Amino-5-trifluoromethyl-pyridin-3-yl)-1-[6-(3-hydroxy-pyrrolidin-1-yl)-2-methyl-pyridin-3-yl]-3-methyl-1,3-dihydro-imidazo[4,5-c]quinolin-2-one]		
39 nM		CCOc1ccc(-c2ccc3ncc4c(c3c2)n(-c2ccc(N3CCC(O)C3)nc2C)c(=O)n4C)cn1 (centres unmarked) [Example 27.4, 8-(6-Ethoxy-pyridin-3-yl)-1-[6-(3-hydroxy-pyrrolidin-1-yl)-2-methyl-pyridin-3-yl]-3-methyl-1,3-dihydro-imidazo[4,5-c]quinolin-2-one]		
56 nM		COc1cc(-c2ccc3ncc4c(c3c2)n(-c2ccc(N3CC(F)(F)C3)nc2C)c(=O)n4C)cnc1CO [Example 24.4, 1-[6-(3,3-Difluoro-azetidin-1-yl)-2-methyl-pyridin-3-yl]-8-(6-hydroxymethyl-5-methoxy-pyridin-3-yl)-3-methyl-1,3-dihydro-imidazo[4,5-c]quinolin-2-one]		
27 nM		COc1cc(-c2ccc3ncc4c(c3c2)n(-c2ccc(N3CCCC3)nc2C)c(=O)n4C)cnc1CO [Example 25.4, 8-(6-Hydroxymethyl-5-methoxy-pyridin-3-yl)-3-methyl-1-(2-methyl-6-pyrrolidin-1-yl-pyridin-3-yl)-1,3-dihydro-imidazo[4,5-c]quinolin-2-one]	7 nM	
23 nM		COc1cc(-c2ccc3ncc4c(c3c2)n(-c2ccc(N3CCC(OC)C3)nc2C)c(=O)n4C)cnc1CO (centres unmarked) [Example 28.3, 8-(6-Hydroxymethyl-5-methoxy-pyridin-3-yl)-1-[6-(3-methoxy-pyrrolidin-1-yl)-2-methyl-pyridin-3-yl]-3-methyl-1,3-dihydro-imidazo[4,5-c]quinolin-2-one]	8 nM	
97 nM		CNc1ncc(-c2ccc3ncc4c(c3c2)n(-c2ccc(N3CC[C@@H](O)C3)nc2C)c(=O)n4C)cn1 [Example 34.1, 1-[6-((R)-3-Hydroxy-pyrrolidin-1-yl)-2-methyl-pyridin-3-yl]-3-methyl-8-(2-methylamino-pyrimidin-5-yl)-1,3-dihydro-imidazo[4,5-c]quinolin-2-one]	3 nM	
	26 nM	Cc1ncccc1-n1c(=O)n(C)c2cnc3ccc(-c4cnc5[nH]ccc5c4)cc3c21 [Example 2.8, 3-Methyl-1-(2-methyl-pyridin-3-yl)-8-(1H-pyrrolo[2,3-b]pyridin-5-yl)-1,3-dihydro-imidazo[4,5-c]quinolin-2-one]		
127 nM		COCc1ncc(-c2ccc3ncc4c(c3c2)n(-c2ccc(F)nc2C)c(=O)n4C)cc1OC [Example 7.7, 1-(6-Fluoro-2-methyl-pyridin-3-yl)-8-(5-methoxy-6-methoxymethyl-pyridin-3-yl)-3-methyl-1,3-dihydro-imidazo[4,5-c]quinolin-2-one]	113 nM	
18 nM		CNc1ncc(-c2ccc3ncc4c(c3c2)n(-c2ccc(N3CC[C@H](O)C3)nc2C)c(=O)n4C)cc1Cl [Example 32.4, 8-(5-Chloro-6-methylamino-pyridin-3-yl)-1-[6-((S)-3-hydroxy-pyrrolidin-1-yl)-2-methyl-pyridin-3-yl]-3-methyl-1,3-dihydro-imidazo[4,5-c]quinolin-2-one]	4 nM	
34 nM		CNc1ncc(-c2ccc3ncc4c(c3c2)n(-c2ccc(N3CCC(OC)C3)nc2C)c(=O)n4C)cn1 (centres unmarked) [Example 28.2, 1-[6-(3-Methoxy-pyrrolidin-1-yl)-2-methyl-pyridin-3-yl]-3-methyl-8-(2-methylamino-pyrimidin-5-yl)-1,3-dihydro-imidazo[4,5-c]quinolin-2-one]	1 nM	
75 nM		COCc1ncc(-c2ccc3ncc4c(c3c2)n(-c2cccnc2C)c(=O)n4C)cc1OC [Example 2.30, 8-(5-Methoxy-6-methoxymethyl-pyridin-3-yl)-3-methyl-1-(2-methyl-pyridin-3-yl)-1,3-dihydro-imidazo[4,5-c]quinolin-2-one]	34 nM	
54 nM		COc1cc(-c2ccc3ncc4c(c3c2)n(-c2ccc(N)nc2C)c(=O)n4C)cnc1CO [Example 30.1, 1-(6-Amino-2-methyl-pyridin-3-yl)-8-(6-hydroxymethyl-5-methoxy-pyridin-3-yl)-3-methyl-1,3-dihydro-imidazo[4,5-c]quinolin-2-one]		
84 nM		CCNc1cc(-c2ccc3ncc4c(c3c2)n(-c2ccc(N(C)CCO)nc2C)c(=O)n4C)cnc1CO [Example 26.3, 8-(5-Ethylamino-6-hydroxymethyl-pyridin-3-yl)-1-{6-[(2-hydroxy-ethyl)-methyl-amino]-2-methyl-pyridin-3-yl}-3-methyl-1,3-dihydro-imidazo[4,5-c]quinolin-2-one]		
26 nM		COc1cc(-c2ccc3ncc4c(c3c2)n(-c2ccc(N3CC[C@H](O)C3)nc2C)c(=O)n4C)cnc1CO [Example 32.7, 8-(6-Hydroxymethyl-5-methoxy-pyridin-3-yl)-1-[6-((S)-3-hydroxy-pyrrolidin-1-yl)-2-methyl-pyridin-3-yl]-3-methyl-1,3-dihydro-imidazo[4,5-c]quinolin-2-one]	21.4 nM	
10 nM		Cc1nc(N2CCC(O)C2)ccc1-n1c(=O)n(C)c2cnc3ccc(-c4cncc(C(C)(C)O)c4)cc3c21 (centres unmarked) [Example 27.5, 8-[5-(1-Hydroxy-1-methyl-ethyl)-pyridin-3-yl]-1-[6-(3-hydroxy-pyrrolidin-1-yl)-2-methyl-pyridin-3-yl]-3-methyl-1,3-dihydro-imidazo[4,5-c]quinolin-2-one]	33 nM	
24 nM		COc1cc(-c2ccc3ncc4c(c3c2)n(-c2ccc(F)nc2C)c(=O)n4C)cnc1CO [Example 7.10, 1-(6-Fluoro-2-methyl-pyridin-3-yl)-8-(6-hydroxymethyl-5-methoxy-pyridin-3-yl)-3-methyl-1,3-dihydro-imidazo[4,5-c]quinolin-2-one]	15 nM	
59 nM		COc1ccc(-n2c(=O)n(C)c3cnc4ccc(-c5cnc(CO)c(OC)c5)cc4c32)c(OC)n1 [Example 8.14, 1-(2,6-Dimethoxy-pyridin-3-yl)-8-(6-hydroxymethyl-5-methoxy-pyridin-3-yl)-3-methyl-1,3-dihydro-imidazo[4,5-c]quinolin-2-one]		
	41 nM	Cn1c(=O)n(-c2cccnc2F)c2c3cc(-c4cnc5[nH]ccc5c4)ccc3ncc21 [Example 6.3, 1-(2-Fluoro-pyridin-3-yl)-3-methyl-8-(1H-pyrrolo[2,3-b]pyridin-5-yl)-1,3-dihydro-imidazo[4,5-c]quinolin-2-one]		
68 nM		Cc1nc(F)ccc1-n1c(=O)n(C)c2cnc3ccc(-c4cncc(N5CCC5)c4)cc3c21 [Example 7.6, 8-(5-Azetidin-1-yl-pyridin-3-yl)-1-(6-fluoro-2-methyl-pyridin-3-yl)-3-methyl-1,3-dihydro-imidazo[4,5-c]quinolin-2-one]	7 nM	
19 nM		Cc1nc(N2CC(O)C2)ccc1-n1c(=O)n(C)c2cnc3ccc(-c4cncc(C(C)(C)O)c4)cc3c21 [Example 29.1, 1-[6-(3-Hydroxy-azetidin-1-yl)-2-methyl-pyridin-3-yl]-8-[5-(1-hydroxy-1-methyl-ethyl)-pyridin-3-yl]-3-methyl-1,3-dihydro-imidazo[4,5-c]quinolin-2-one]	15 nM	
365 nM		COc1ccc(-n2c(=O)n(C)c3cnc4ccc(-c5cncc(N6CCC6)c5)cc4c32)c(OC)n1 [Example 8.11, 8-(5-Azetidin-1-yl-pyridin-3-yl)-1-(2,6-dimethoxy-pyridin-3-yl)-3-methyl-1,3-dihydro-imidazo[4,5-c]quinolin-2-one]	1 nM	
28 nM		CCNc1cc(-c2ccc3ncc4c(c3c2)n(-c2ccc(N3CCCC3)nc2C)c(=O)n4C)cnc1CO [Example 25.5, 8-(5-Ethylamino-6-hydroxymethyl-pyridin-3-yl)-3-methyl-1-(2-methyl-6-pyrrolidin-1-yl-pyridin-3-yl)-1,3-dihydro-imidazo[4,5-c]quinolin-2-one]		
	29 nM	CNC(=O)c1ccc(-c2ccc3ncc4c(c3c2)n(-c2cccnc2C)c(=O)n4C)cc1 [Example 2.4, N-Methyl-4-[3-methyl-1-(2-methyl-pyridin-3-yl)-2-oxo-2,3-dihydro-1H-imidazo[4,5-c]quinolin-8-yl]-benzamide]		23.1 nM
27 nM		CCNc1cc(-c2ccc3ncc4c(c3c2)n(-c2ccc(N3CC(F)(F)C(F)(F)C3)nc2C)c(=O)n4C)cnc1CO [Example 35.2, 8-(5-Ethylamino-6-hydroxymethyl-pyridin-3-yl)-3-methyl-1-[2-methyl-6-(3,3,4,4-tetrafluoro-pyrrolidin-1-yl)-pyridin-3-yl]-1,3-dihydro-imidazo[4,5-c]quinolin-2-one]	1 nM	
